Data from PMC11078746 (Nature, 2024).
Read-outs that look alike come from different tables or passages of the source.

Key:
[1] = tested on: microsatellite-stable (MSS) cells; experiment: Clonogenic assay, 10-to-14-day; settings: 10-to-14-day clonogenic assay
SNU407 = experiment: 4 day proliferation assay (CellTiter-Glo); settings: Homo sapiens, SNU-407, 96 h, read-out: 4 day assay GI50
[2] = tested on: WRN protein in MSI and MSS cells; experiment: WRN degradation (immunoblot, ELISA); format: cell-based, human
Procedure: A list of all of the antibodies is provided in Supplementary Table 2. […] The plates were washed in PBS and 200 µl per well of blocking reagent added (PBS, 0.05% Tween-20, 5% skimmed milk), and the plates were incubated for a minimum of 2 h at room temperature. […] The plates were then washed and 50 µl of secondary antibody per well diluted in blocking buffer was added and the plates were incubated overnight at 4 °C. The next day, 50 µl of tertiary antibody was added per well buffer and the plates were incubated for 2 h at room temperature. […] The plates were shaken and luminescence was detected immediately on the Synergy HT microplate reader.

JHUEM1 = experiment: 4 day proliferation assay (CellTiter-Glo); settings: Homo sapiens, 96 h, read-out: 4 day assay GI50
[3] = CL in vivo, intravenous bolus; settings: whole blood
Procedure: PK parameters were determined by non-compartmental analysis. Intravenous bolus studies in mouse, rat and dog were performed at 1, 1 and 0.1 mg per kg respectively (Extended Data Table 1).

Mouse unbound fraction = format: in vitro ADME; settings: blood
HEC1A [4] = experiment: 4 day proliferation assay (CellTiter-Glo); settings: Homo sapiens, HEC-1-A, 96 h, read-out: 4 day assay GI50
CL34 = experiment: 4 day proliferation assay (CellTiter-Glo); settings: Homo sapiens, 96 h, read-out: 4 day assay GI50
LIM2405 = experiment: 4 day proliferation assay (CellTiter-Glo); settings: Homo sapiens, 96 h, read-out: 4 day assay GI50
NUGC3 = experiment: CFA 10-14 day clonogenic assay; format: cell-based; settings: Homo sapiens, NUGC-3
hERG = hERG (Homo sapiens, UniProt Q12809); experiment: hERG binding (patch clamp)
hERG, sequence (Q12809 whole entry): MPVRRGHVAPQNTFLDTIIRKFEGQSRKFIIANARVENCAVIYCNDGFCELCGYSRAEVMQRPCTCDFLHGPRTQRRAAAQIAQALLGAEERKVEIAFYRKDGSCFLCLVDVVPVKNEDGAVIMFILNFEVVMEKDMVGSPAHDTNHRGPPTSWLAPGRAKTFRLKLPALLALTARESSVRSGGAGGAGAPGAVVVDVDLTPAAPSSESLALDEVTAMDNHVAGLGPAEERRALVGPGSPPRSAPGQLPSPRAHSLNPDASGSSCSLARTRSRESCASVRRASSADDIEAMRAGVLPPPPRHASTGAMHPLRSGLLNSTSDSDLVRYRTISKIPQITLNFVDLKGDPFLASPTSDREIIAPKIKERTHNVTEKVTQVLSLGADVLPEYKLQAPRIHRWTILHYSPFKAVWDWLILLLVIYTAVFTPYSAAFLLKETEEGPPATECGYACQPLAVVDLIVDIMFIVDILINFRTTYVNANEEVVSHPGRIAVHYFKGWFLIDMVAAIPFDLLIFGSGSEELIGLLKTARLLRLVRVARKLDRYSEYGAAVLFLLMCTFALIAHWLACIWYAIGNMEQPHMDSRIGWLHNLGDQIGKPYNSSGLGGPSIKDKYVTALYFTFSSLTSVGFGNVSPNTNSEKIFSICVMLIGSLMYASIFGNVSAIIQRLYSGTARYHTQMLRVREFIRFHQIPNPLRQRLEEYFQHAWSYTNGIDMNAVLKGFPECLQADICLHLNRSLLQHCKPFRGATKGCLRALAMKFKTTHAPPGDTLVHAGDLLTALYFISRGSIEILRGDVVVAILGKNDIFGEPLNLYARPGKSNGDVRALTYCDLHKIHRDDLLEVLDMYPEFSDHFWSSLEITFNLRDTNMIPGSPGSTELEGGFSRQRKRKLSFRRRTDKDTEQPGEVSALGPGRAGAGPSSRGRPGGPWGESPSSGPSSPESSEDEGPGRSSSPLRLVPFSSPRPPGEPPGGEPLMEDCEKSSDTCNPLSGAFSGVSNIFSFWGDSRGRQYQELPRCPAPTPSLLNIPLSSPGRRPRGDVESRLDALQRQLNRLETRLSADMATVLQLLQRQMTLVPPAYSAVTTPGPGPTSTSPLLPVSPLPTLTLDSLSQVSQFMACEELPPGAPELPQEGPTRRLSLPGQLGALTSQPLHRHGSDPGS

OC314 = experiment: 4 day proliferation assay (CellTiter-Glo); settings: Homo sapiens, OC-314, 96 h, read-out: 4 day assay GI50
HEC6 = experiment: 4 day proliferation assay (CellTiter-Glo); settings: Homo sapiens, HEC-6, 96 h, read-out: 4 day assay GI50
JHUEM2 [5] = experiment: 4 day proliferation assay (CellTiter-Glo); settings: Homo sapiens, 96 h, read-out: 4 day assay GI50
SNUC2A [6] = experiment: 4 day proliferation assay (CellTiter-Glo)
SNU520 = experiment: 4 day proliferation assay (CellTiter-Glo); settings: Homo sapiens, 96 h, read-out: 4 day assay GI50
HEC1A [7] = experiment: CFA 10-14 day clonogenic assay; format: cell-based; settings: Homo sapiens, HEC-1-A
SNUC2A [8] = experiment: CFA 10-14 day clonogenic assay; format: cell-based; settings: Homo sapiens
102 common targets = experiment: Safety pharmacology panel; settings: all except COX1
RL952 = experiment: 4 day proliferation assay (CellTiter-Glo); settings: Homo sapiens, RL95-2, 96 h, read-out: 4 day assay GI50
OVK18 = experiment: CFA 10-14 day clonogenic assay; format: cell-based; settings: Homo sapiens
LS411N = experiment: 4 day proliferation assay (CellTiter-Glo)
CW2 = experiment: CFA 10-14 day clonogenic assay; format: cell-based; settings: Homo sapiens, CW-2
RKO = experiment: 4 day proliferation assay (CellTiter-Glo); settings: Homo sapiens, 96 h, read-out: 4 day assay GI50
SW48 = experiment: 4 day proliferation assay (CellTiter-Glo); settings: for GI50: Homo sapiens, SW48, 96 h
HEC251 = experiment: CFA 10-14 day clonogenic assay; format: cell-based; settings: Homo sapiens, HEC-251
[9] = In vitro unbound fraction; format: in vitro ADME
JHUEM2 [10] = experiment: CFA 10-14 day clonogenic assay; format: cell-based; settings: Homo sapiens
MDCK LE permeability = format: in vitro ADME, canine; settings: dog

Question: What does the source list for `CCc1c(N2CCN(C(=O)c3ncnc(C)c3O)CC2)c(=O)n2nc(C3=CCOCC3)nc2n1CC(=O)Nc1ccc(C(F)(F)F)cc1Cl` [HRO761]?
Answer: effect on viability [1]: no effect; GI50 (SNU407): 440 nM; WRN degradation, dependence on MSI/MSS status [2]: only in MSI cells; GI50 (JHUEM1): 946 nM; clearance ([3]; 0.1 mg/kg, dog, intravenous bolus 0.1 mg per kg): 4.3 mL/min/kg; clearance ([3]; 1 mg/kg, mouse, intravenous bolus 1 mg per kg): 29 mL/min/kg; clearance ([3]; 1 mg/kg, rat, intravenous bolus 1 mg per kg): 5.3 mL/min/kg; fraction unbound (Mouse unbound fraction): 0.193; GI50 (HEC1A [4]): ≥ 10000 nM; GI50 (CL34): 231 nM; GI50 (LIM2405): 1530 nM; GI50 (NUGC3): ≥ 10000 nM; IC50 (hERG): > 30000 nM; GI50 (OC314): ≥ 10000 nM; GI50 (HEC6): 365 nM; GI50 (JHUEM2 [5]): ≥ 10000 nM; GI50 (SNUC2A [6]; Homo sapiens, 96 h, read-out: 4 day assay GI50, SNUC2A): 641 nM; GI50 (SNUC2A [6]; read-out: 4 day assay GI50, SNUC2A): 542 nM; GI50 (SNU520): ≥ 10000 nM; GI50 (HEC1A [7]): ≥ 10000 nM; GI50 (SNUC2A [8]): 25 nM; Safety pharmacology panel (102 common targets): > 30 μM; GI50 (RL952): 144 nM; GI50 (OVK18): 150 nM; GI50 (LS411N; Homo sapiens, LS-411N, 96 h, read-out: 4 day assay GI50, LS411N): 147 nM; GI50 (LS411N; read-out: 4 day assay GI50, LS411N): 257 nM; GI50 (CW2): 68 nM; GI50 (RKO): 2910 nM; GI50 (SW48; HRO761 alone): 100 nM; GI50 (SW48; HRO761 dose response with 3.2 µM ATMi KU-55933): 200 nM; GI50 (SW48; read-out: 4 day assay GI50, SW48): 58 nM; unbound GI90 (SW48; SW48): 160 nM; GI50 (HEC251): ≥ 10000 nM; fraction unbound [9]: 0.37; GI50 (JHUEM2 [10]): 929 nM; Papp A→B (MDCK LE permeability; A-B): 30 ×10⁻⁶ cm/s; Papp (MDCK LE permeability; Fig. 1b): 31 ×10⁻⁶ cm/s
